The supplement of paper PMC10307832

Legend:
Assay in all cases: relative viability (nuclei count vs DMSO), 5 days (fraction); higher = more cells survive
Bromopyruvate + AZD7762 = compound: C(C(=O)C(=O)O)Br [Bromopyruvate] + NC(=O)Nc1cc(-c2cccc(F)c2)sc1C(=O)N[C@H]1CCCNC1 [AZD7762] (partner 0.2 µM)
Method in brief: (§1)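 A single step with final 0.05% Triton X-100, 1% formaldehyde and 1 ug/ml Hoechst fixed the cells and stained nuclei 5 days after treatment. Lung cancer cell lines in 1536-well plates had been treated by pin tool the day after seeding with one drug alone or a fixed anchor-drug dose plus five library-drug doses (not always all listed) in √10 steps, and nuclei were counted on 4× images. Relative viability is the ratio of nuclei in treated wells to nuclei in vehicle wells, taken as the median of duplicate plates.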

[1] = compound: CC(O)(CS(=O)(=O)c1ccc(F)cc1)C(=O)Nc1ccc(C#N)c(C(F)(F)F)c1 [Bicalutamide] + N=C(N)NC(=N)NCCc1ccccc1 [Phenformin] (partner 250 µM)
Method in brief: as §1

[2] = compound: C(C(=O)C(=O)O)Br [Bromopyruvate] + Cc1cc(Nc2cc(N3CCN(C)CC3)nc(Sc3ccc(NC(=O)C4CC4)cc3)n2)n[nH]1 [Tozasertib] (partner 0.1 µM)
Method in brief: as §1

[3] = compound: C(C(=O)C(=O)O)Br [Bromopyruvate] + Nc1nc2[nH]cc(CCc3ccc(C(=O)N[C@@H](CCC(=O)O)C(=O)O)cc3)c2c(=O)[nH]1 [Pemetrexed] (partner 0.2 µM)
Method in brief: as §1

Cell Line | relative viability (Bromopyruvate + AZD7762; first compound 1 µM) | relative viability (Bromopyruvate + AZD7762; first compound 3.162 µM) | relative viability (Bromopyruvate + AZD7762; first compound 10 µM) | relative viability (Bromopyruvate + AZD7762; first compound 31.62 µM) | relative viability (Bromopyruvate + AZD7762; first compound 100 µM) | relative viability ([1]; first compound 0.08 µM) | relative viability ([1]; first compound 0.253 µM) | relative viability ([1]; first compound 0.8 µM) | relative viability ([1]; first compound 2.53 µM) | relative viability ([2]; first compound 1 µM) | relative viability ([2]; first compound 3.162 µM) | relative viability ([2]; first compound 10 µM) | relative viability ([2]; first compound 31.62 µM) | relative viability ([2]; first compound 100 µM) | relative viability ([3]; first compound 1 µM) | relative viability ([3]; first compound 3.162 µM) | relative viability ([3]; first compound 10 µM) | relative viability ([3]; first compound 31.62 µM) | relative viability ([3]; first compound 100 µM)
NCI-H1755 | 0.432 | 0.476 | 0.381 | 0.51 | 0.473 | 0.651 | 0.595 | 0.596 | 0.551 | 0.59 | 0.568 | 0.495 | 0.702 | 0.693 | 0.44 | 0.441 | 0.371 | 0.475 | 0.52
NCI-H1793 | 0.452 | 0.536 | 0.484 | 0.428 | 0.522 | 0.317 | 0.318 | 0.545 | 0.392 | 0.371 | 0.421 | 0.36 | 0.391 | 0.204 | 0.91 | 1.18 | 0.989 | 0.906 | 1.16
NCI-H1915 | 0.699 | 0.681 | 0.671 | 0.661 | 0.689 | 0.375 | 0.313 | 0.368 | 0.362 | 0.438 | 0.455 | 0.445 | 0.444 | 0.392 | 0.496 | 0.41 | 0.497 | 0.511 | 0.481
NCI-H1944 | 0.579 | 0.521 | 0.576 | 0.514 | 0.54 | 0.216 | 0.181 | 0.238 | 0.217 | 0.224 | 0.266 | 0.243 | 0.283 | 0.273 | 0.576 | 0.707 | 0.625 | 0.656 | 0.63
NCI-H1975 | 0.825 | 0.691 | 0.721 | 0.785 | 0.703 | 0.4 | 0.409 | 0.442 | 0.37 | 0.733 | 0.811 | 0.806 | 0.729 | 0.646 | 0.276 | 0.3 | 0.292 | 0.326 | 0.292
NCI-H1993 | 0.821 | 0.872 | 0.994 | 0.851 | 0.982 | 0.437 | 0.51 | 0.434 | 0.447 | 0.626 | 0.629 | 0.697 | 0.578 | 0.598 | 0.629 | 0.649 | 0.633 | 0.605 | 0.582
NCI-H2085 | 0.947 | 1.01 | 1.04 | 0.991 | 0.95 | 0.742 | 0.686 | 0.781 | 0.608 | 0.821 | 0.917 | 0.84 | 0.558 | 0.311 | 0.974 | 0.954 | 0.992 | 0.937 | 0.963
NCI-H2087 | 1.19 | 1.4 | 1.36 | 1.2 | 1.32 | 0.539 | 0.449 | 0.642 | 0.435 | 0.237 | 0.284 | 0.234 | 0.269 | 0.258 | 0.658 | 0.745 | 0.651 | 0.72 | 0.567
NCI-H2126 | 0.989 | 1.04 | 1.2 | 0.953 | 1.04 | 0.519 | 0.528 | 0.55 | 0.49 | 0.881 | 0.858 | 0.825 | 0.879 | 0.783 | 0.702 | 0.636 | 0.66 | 0.677 | 0.695
NCI-H2170 | 0.923 | 0.989 | 1.19 | 0.893 | 0.854 | 0.418 | 0.412 | 0.429 | 0.47 | 0.689 | 0.708 | 0.798 | 0.761 | 0.868 | 0.277 | 0.27 | 0.249 | 0.258 | 0.626
NCI-H2342 | 0.397 | 0.436 | 0.451 | 0.47 | 0.481 | 0.641 | 0.466 | 0.702 | 0.608 | 0.594 | 0.616 | 0.433 | 0.483 | 0.412 | 0.848 | 0.779 | 0.847 | 0.636 | 0.74
NCI-H2347 | 0.751 | 0.79 | 0.754 | 0.711 | 0.773 | 0.368 | 0.462 | 0.421 | 0.268 | 0.69 | 0.534 | 0.715 | 0.479 | 0.609 | 0.42 | 0.471 | 0.486 | 0.44 | 0.43
NCI-H2405 | 0.998 | 0.888 | 0.887 |  | 0.254 | 0.436 | 0.358 | 0.468 | 0.415 | 0.806 | 0.779 | 0.723 | 0.804 | 0.785 | 1.14 | 1.06 | 1.24 |  | 0.728
NCI-H3122 | 1.03 | 0.967 | 1.04 | 0.989 | 0.921 | 0.46 | 0.416 | 0.378 | 0.369 | 0.381 | 0.378 | 0.468 | 0.417 | 0.382 | 0.209 | 0.193 | 0.186 | 0.183 | 0.192
PC-3 [JPC-3] | 0.903 |  | 0.933 |  | 0.638 | 0.46 | 0.472 | 0.505 | 0.505 | 0.906 | 0.868 | 0.937 | 0.841 | 0.892 | 1.3 |  | 0.783 |  | 1.11
PC-14 | 0.483 | 0.401 | 0.407 | 0.412 | 0.384 | 0.701 | 0.541 | 0.96 | 0.527 | 0.598 | 0.566 | 0.633 | 0.633 | 0.628 | 0.141 | 0.143 | 0.14 | 0.154 | 0.123
RERF-LC-KJ | 0.97 | 1.04 | 1.29 | 0.978 | 0.889 | 0.406 | 0.396 | 0.431 | 0.336 | 0.508 | 0.491 | 0.433 | 0.517 | 0.413 | 0.49 | 0.507 | 0.457 | 0.49 | 0.468
